“And” between values parts separate entries of the source, which are not always exact repeats. Equal values may be shown once.
Columns and labels:
[1] = xn = mol fraction of the nth substance listed

O=CC(Br)(Br)Br
101.33 kPa
Details	viscosity [mPa·s]
293.15 K	6.81
313.15 K	3.72

CC(C)C1CCCCC1
100 kPa
Details	viscosity
293.15 K	1.098 mPa·s
303.15 K	0.949 mPa·s and 0.95 mPa·s
308.15 K	0.885 mPa·s and 0.889 mPa·s
313.15 K	0.83 mPa·s and 0.833 mPa·s
318.15 K	0.781 mPa·s and 0.783 mPa·s
323.15 K	0.736 mPa·s

CCCCCBr
101 kPa
Details	viscosity [mPa·s]
293.15 K	0.798
303.15 K	0.709
308.15 K	0.6509
313.15 K	0.637
323.15 K	0.574

CCCC[N+](CCCC)(CCCC)CCCC.[OH-]
viscosity [mPa·s]
Details	298.15 K	303.15 K	308.15 K	313.15 K
100 kPa	6.69	6.49	6.29	6.13
101 kPa	6.69	6.49	6.29	6.13

CCn1cc[n+](CCOC)c1.N#C[S-]
100 kPa
Details	viscosity [mPa·s]
293.15 K	70.77
298.15 K	55.77
303.15 K	44.34
308.15 K	36
313.15 K	29.73
318.15 K	24.89

CCCCCCCCn1cc[n+](C)c1.[Cl][Fe-]([Cl])([Cl])[Cl]
101 kPa
Details	viscosity [mPa·s]
293.15 K	167
298.15 K	133.2
303.15 K	106
308.15 K	84.71
313.15 K	68.3
318.15 K	55.87
323.15 K	46.6

C=CC[n+]1ccn(C)c1.[Cl-]
Details	viscosity [mPa·s]
298.15 K, 101 kPa	254.5

COC(=O)c1ccccc1C(=O)OC
101 kPa
Details	viscosity [mPa·s]
293.15 K	17.63
298.15 K	13.8
303.15 K	11.07
308.15 K	9.064
313.15 K	7.558
318.15 K	6.4
323.15 K	5.493

CC(Cl)(Cl)Cl
viscosity
Details	101 kPa	101.3 kPa	101.32 kPa	101.33 kPa
303.15 K	0.7243 mPa·s and 0.7245 mPa·s	0.7275 mPa·s	0.642 mPa·s and 0.7243 mPa·s	0.7243 mPa·s
313.15 K	–	–	0.583 mPa·s	–

CC/C(C)=N/O
101.3 kPa
Details	viscosity
293.15 K	4.767 mPa·s
298.15 K	4.016 mPa·s and 4.02 mPa·s
303.15 K	3.437 mPa·s

O=CO
viscosity
Details	293.15 K	298.15 K	303.15 K	308.15 K	313.15 K	318.15 K	323.15 K
101 kPa	–	–	1.43 mPa·s and 1.434 mPa·s (2×)	1.304 mPa·s	–	1.089 mPa·s	0.9767 mPa·s
101.33 kPa	1.959 mPa·s	1.51 mPa·s	1.36 mPa·s	1.25 mPa·s	1.291 mPa·s and 1.15 mPa·s	–	–

O=C(O)CC(O)(CC(=O)O)C(=O)O + C[N+](C)(C)CCO.[Cl-]
viscosity [mPa·s], [1], x2 = 0.5
Details	298 K	303 K	313 K	323 K
101 kPa	–	2085000	510000	–
101.3 kPa	14480	–	–	2242

O=CO + C1COCO1
[1], 298.15 K, 101 kPa
Details	viscosity [mPa·s]
x2 = 0.0646	1.419
x2 = 0.1345	1.36
x2 = 0.2103	1.292
x2 = 0.2929	1.216
x2 = 0.3832	1.131
x2 = 0.4824	1.035
x2 = 0.5918	0.9302
x2 = 0.7131	0.8195
x2 = 0.8483	0.7018

CC(Cl)(Cl)Cl + O=C1CCCCC1
[1], 298.15 K, 101.33 kPa
Details	viscosity [mPa·s]
x1 = 0.053	1.896
x1 = 0.099	1.812
x1 = 0.151	1.725
x1 = 0.252	1.568
x1 = 0.352	1.43
x1 = 0.452	1.305
x1 = 0.551	1.192
x1 = 0.6	1.141
x1 = 0.651	1.089
x1 = 0.7	1.041
x1 = 0.8	0.9504
x1 = 0.861	0.8988

O=C([O-])C(F)(F)F.[Cs+] + O
viscosity [mPa·s], [1], 101 kPa
Details	298.15 K	303.15 K	308.15 K	313.15 K
x1 = 0.00102	0.897	0.805	0.727	0.663
x1 = 0.00146	0.899	0.808	0.729	0.666
x1 = 0.002202	0.904	0.812	0.734	0.67
x1 = 0.00303	0.909	0.817	0.739	0.675
x1 = 0.003649	0.913	0.821	0.743	0.679
x1 = 0.004385	0.918	0.826	0.747	0.684
x1 = 0.005137	0.923	0.83	0.752	0.689
x1 = 0.005844	0.928	0.836	0.757	0.693
x1 = 0.006694	0.933	0.841	0.762	0.698
x1 = 0.007272	0.937	0.845	0.767	0.702
x1 = 0.008058	0.943	0.85	0.772	0.707
x1 = 0.008713	0.947	0.855	0.777	0.711
x1 = 0.009254	0.95	0.858	0.78	0.716
x1 = 0.01011	0.956	0.864	0.784	0.721

O=CO + CCC(C)=O
viscosity [mPa·s], [1], 101 kPa
Details	x1 = 0.1013	x1 = 0.2006	x1 = 0.3007	x1 = 0.3962	x1 = 0.4985	x1 = 0.602	x1 = 0.7014	x1 = 0.7972	x1 = 0.9011
298.15 K	0.4271	0.4706	0.5282	0.5841	0.6726	0.7807	0.9125	1.078	1.309
308.15 K	0.3863	0.4247	0.4703	0.5186	0.5915	0.6799	0.787	0.9165	1.095
318.15 K	0.3479	0.3801	0.4183	0.458	0.5195	0.5896	0.6771	0.7866	0.9246

CC(Cl)(Cl)Cl + C[N+](=O)[O-]
[1], 298.15 K, 101.33 kPa
Details	viscosity [mPa·s]
x1 = 0.101	0.6114
x1 = 0.201	0.6128
x1 = 0.251	0.6165
x1 = 0.301	0.622
x1 = 0.351	0.6284
x1 = 0.4	0.6356
x1 = 0.451	0.6435
x1 = 0.5	0.6518
x1 = 0.55	0.6607
x1 = 0.551	0.6609
x1 = 0.6	0.6702
x1 = 0.65	0.6803
x1 = 0.651	0.6805
x1 = 0.7	0.6912
x1 = 0.749	0.703
x1 = 0.812	0.7202
x1 = 0.867	0.7375

CC(Cl)(Cl)Cl + CCCOCCC
[1], 298.15 K, 101.33 kPa
Details	viscosity [mPa·s]
x1 = 0.101	0.4245
x1 = 0.198	0.4478
x1 = 0.299	0.4745
x1 = 0.398	0.5036
x1 = 0.5	0.5365
x1 = 0.601	0.5733
x1 = 0.7	0.6147
x1 = 0.8	0.6632
x1 = 0.85	0.6907

Source: the CheMixHub viscosity set
